This is an account of results in ChEMBL document CHEMBL5233269, “Anticancer potential of spirocompounds in medicinal chemistry: A pentennial expedition” (Eur J Med Chem, 2021).

The test system of data set [1] is MDA-MB-231. The data set is described as follows: Antiproliferative activity against human MDA-MB-231 cells. The format is functional, cell-based.
In data set [2] the test system is A549. As to the kind of experiment: Antiproliferative activity against human A549 cells assessed as reduction in cell viability. The format is functional, cell-based.
The test system of data set [3] is MCF7. As to the kind of experiment: Antiproliferative activity against human MCF7 cells assessed as reduction in cell viability. The class given is functional, cell-based.
Data set [4] has as its system HeLa. The data set is described as follows: Antiproliferative activity against human HeLa cells. The class given is functional, cell-based.
The test system of data set [5] is MDA-MB-231. As to the kind of experiment: Antiproliferative activity against human MDA-MB-231 cells by MTT assay. The class given is functional, cell-based.
Data set [6] relates to Panel NCI-60 (60 carcinoma cell lines). As to the kind of experiment: Growth inhibition of human Panel NCI-60 (60 carcinoma cell lines) cells. The class given is functional.
The nature of data set [7]: Anticancer activity against human Panel (56 tumour cell lines) at 10 uM relative to control. The format is functional.
The subject of data set [8] is MCF7. As to the kind of experiment: Anticancer activity against human MCF7 cells measured after 48 hrs by Sulforhodamine B assay. The settings on record: MCF7, 48 h. The format is functional, cell-based. In general terms: Sulforhodamine B stains cellular protein and so reports cell mass.
For data set [9], the system named is HCT-116. As to the kind of experiment: Anticancer activity against human HCT-116 cells measured after 48 hrs by Sulforhodamine B assay. The class given is functional, cell-based. Conditions: HCT-116, 48 h.
For the next data set, the system named is T47D. The data set is described as follows: Anticancer activity against human T47D cells measured after 48 hrs by Sulforhodamine B assay. The format is functional, cell-based.
Data set [10] has as its system HeLa. The data set is described as follows: Anticancer activity against human HeLa cells measured after 48 hrs by Sulforhodamine B assay. The format is functional, cell-based.
Another data set has as its system HepG2. As to the kind of experiment: Anticancer activity against human HepG2 cells measured after 48 hrs by Sulforhodamine B assay. The format is functional, cell-based. The settings on record: HepG2, 48 h.
A further data set concerns L929. As to the kind of experiment: Cytotoxicity against mouse L929 cells at 50 ug/ml relative to control. The settings on record: at 50 µg/mL. The class given is toxicity, cell-based.
In data set [11] the test system is MDA-MB-231. The data set is described as follows: Cytotoxicity against human MDA-MB-231 cells at 50 ug/ml relative to control. The class given is functional. Conditions: dose 50 µg/ml.
Another data set has as its system FaDu. As to the kind of experiment: Anticancer activity against human FaDu cells. The class given is functional, cell-based.
The next data set has as its system WI-38. The data set is described as follows: Cytotoxicity against human WI-38 cells assessed as reduction in cell growth. The class given is functional, cell-based.
For data set [12], the system named is MCF7. The data set is described as follows: Cytotoxicity against human MCF7 cells assessed as reduction in cell growth. The class given is functional, cell-based.
A further data set relates to Mahlavu. As to the kind of experiment: Anticancer activity against human Mahlavu cells measured after 72 hrs by SRB assay. The class given is functional, cell-based.
The subject of data set [13] is HCT-116. As to the kind of experiment: Anticancer activity against human HCT-116 cells measured after 72 hrs by SRB assay. The format is functional, cell-based. The settings on record: HCT-116, 72 h.
For the next data set, the system named is Huh-7. As to the kind of experiment: Anticancer activity against human Huh-7 cells measured after 72 hrs by SRB assay. The class given is functional, cell-based. The settings on record: Huh-7, 72 h.
The test system of data set [14] is MCF7. The data set is described as follows: Anticancer activity against human MCF7 cells measured after 72 hrs by SRB assay. The class given is functional, cell-based. Conditions: MCF7, 72 h.
The subject of data set [15] is K562. As to the kind of experiment: Antiproliferative activity against human K562 cells measured upto 72 hrs by microscopy based analysis. The class given is functional, cell-based. Conditions: K562, 72 h.
The next data set has as its system U-937. The data set is described as follows: Antiproliferative activity against human U-937 cells measured upto 72 hrs by microscopy based analysis. The format is functional, cell-based. The settings on record: U-937, 72 h.
The subject of a further data set is HT-29. As to the kind of experiment: Antiproliferative activity against human HT-29 cells assessed as inhibition of cell growth. The format is functional, cell-based.
A further data set concerns A2780. The data set is described as follows: Antiproliferative activity against human A2780 cells assessed as inhibition of cell growth. The format is functional, cell-based.
Data set [16] has as its system MCF7. The data set is described as follows: Antiproliferative activity against human MCF7 cells assessed as inhibition of cell growth. The class given is functional, cell-based.
In data set [17] the test system is HeLa. As to the kind of experiment: Cytotoxicity against human HeLa cells assessed as reduction in cell viability. The class given is functional, cell-based.
In data set [18] the test system is MCF7. As to the kind of experiment: Cytotoxicity against human MCF7 cells assessed as reduction in cell viability. The class given is functional, cell-based.
Data set [19] in a line: Cytotoxicity against HEK293T cells incubated for 72 hrs by MTT assay. The format is toxicity, cell-based, HEK-293T. Conditions: human. Background: Tetrazolium dyes change colour on reduction, which living cells bring about.
Data set [20] is described as follows: Cytotoxicity against human VA13 cells incubated for 72 hrs by MTT assay. Conditions: VA13 (WI-38 VA13) cells. The format is toxicity, cell-based.
The test system of data set [21] is MCF7. As to the kind of experiment: Cytotoxicity against human MCF7 cells incubated for 72 hrs by MTT assay. The class given is functional, cell-based. The settings on record: MCF7, 72 h.
For data set [22], the system named is A549. The data set is described as follows: Cytotoxicity against human A549 cells incubated for 72 hrs by MTT assay. The format is functional, cell-based. Conditions: A549, 72 h.
Data set [23] has as its system HeLa. As to the kind of experiment: Antiproliferative activity against human HeLa cells incubated for 72 hrs by MTT assay. The class given is functional, cell-based.
The test system of data set [24] is A549. As to the kind of experiment: Antiproliferative activity against human A549 cells incubated for 72 hrs by MTT assay. The format is functional, cell-based. The settings on record: A549, 72 h.
The subject of the next data set is Caco-2. As to the kind of experiment: Antiproliferative activity against human Caco-2 cells incubated for 72 hrs by MTT assay. The class given is functional, cell-based. The settings on record: Caco-2, 72 h.
For data set [25], the system named is MCF7. As to the kind of experiment: Antiproliferative activity against human MCF7 cells incubated for 72 hrs by MTT assay. The class given is functional, cell-based. Conditions: MCF7, 72 h.
The next data set relates to CCRF-CEM. As to the kind of experiment: Antiproliferative activity against human CEM cells incubated for 72 hrs by MTT assay. The format is functional, cell-based.
In a further data set the test system is Jurkat. The data set is described as follows: Antiproliferative activity against human Jurkat cells incubated for 72 hrs by MTT assay. The format is functional, cell-based.
The subject of data set [26] is MDA-MB-231. The data set is described as follows: Antiproliferative activity against human MDA-MB-231 cells incubated for 72 hrs by MTT assay. The settings on record: MDA-MB-231, 72 h. The format is functional, cell-based.
In data set [27] the test system is HCT-116. The data set is described as follows: Antiproliferative activity against human HCT-116 cells incubated for 72 hrs by MTT assay. Conditions: HCT-116, 72 h. The class given is functional, cell-based.
Data set [28] relates to A549. The data set is described as follows: Anticancer activity against human A549 cells. The format is functional, cell-based.
The next data set relates to PC-3. The data set is described as follows: Anticancer activity against human PC-3 cells. The class given is functional, cell-based.
For data set [29], the system named is K562. As to the kind of experiment: Anticancer activity against human K562 cells. The format is functional, cell-based.

For `COc1ccc(-n2nc(-c3ccccc3)nc2N2C(=O)COC23C=CC(=O)C=C3)cc1`, the half-maximal inhibitory concentration (IC50) (in general, the concentration that inhibits the measured activity by half) in the data set with MDA-MB-231 [1] is 0.0277 µM; with A549 [2] it was 0.0268 µM; with MCF7 [3] it was 0.0888 µM; in the data set on HeLa [4], 0.01 µM.
Take `N#CC1=C(c2ccccc2)Nc2c(c(-c3cccs3)nn2-c2ccccc2)C12C(=O)Nc1ccccc12` (configuration not stated): the IC50 in the data set with MDA-MB-231 [5] is 6.7 µM.
Consider `C1=CC2=CC3CCCC4=Cc5ccccc5OC43OC2C=C1` (configuration not stated), for which, in [6], the concentration for 50% growth inhibition (GI50) (as a rule, the concentration that inhibits growth by half) was < 10 µM.
Regarding `O=C1NC2(CCNCC2)Nc2ccccc21`, in data set [7], the inhibition (usually the relative decrease from the control value, in per cent) at 10 µM is 100%.
Turning to `COc1ccc2c(c1)[C@]1(C(=O)N2)N(C)C[C@@H](c2ccc(F)cc2)[C@@]12CN(C)C/C(=C\c1ccc(F)cc1)C2=O`, the half-maximal inhibitory concentration (IC50) with MCF7 [8] was 3.1 µM; with HCT-116 [9] it was 2.86 µM; with T47D it was 2.98 µM; in the data set with HeLa [10], 2.88 µM; in the data set with HepG2 it was 3.08 µM.
With `CN1CCN(Cc2ccc([N+](=O)[O-])cc2)P12=NP(N1CCCCC1)(N1CCCCC1)=NP(N1CCCCC1)(N1CCCCC1)=N2` (configuration not stated), the Activity is recorded as 70% with L929 and 30% in the data set on MDA-MB-231 [11].
In the data set with FaDu, `Cc1ccccc1/C=C1\CN(/C=C/c2ccccc2)C[C@]2(C1=O)[C@H](c1ccccc1C)[C@@H](Cc1ccccc1)N[C@]21C(=O)Nc2ccccc21` gave a half-maximal inhibitory concentration (IC50) of 21 µM.
For `CN1C(=O)C2(SCC3C(=O)N(CC(=O)NN)N=C(c4ccc(Cl)c(Cl)c4)C32)c2ccccc21` (configuration not stated), the IC50 in the data set with WI-38 came out at 11.2 µM; with MCF7 [12] it was 8.16 µM.
As for `CCNC(=O)[C@H]1[C@H](c2ccc([N+](=O)[O-])cc2)[C@@]2(C(=O)Cc3ccccc32)[C@H](CC(C)C)N1[C@H](c1ccccc1)[C@@H](O)c1ccccc1`, the 50% inhibitory concentration (IC50) was 14.9 µM with Mahlavu, 3.9 µM in the data set on HCT-116 [13], 8.2 µM in the data set on Huh-7 and 4.8 µM with MCF7 [14].
On to `O=C1CC(c2ccccc2)C2(C(=O)Oc3ccccc3C2=O)C(c2ccccc2)C1` (configuration not stated), for which the values for the half-inhibitory concentration (IC50) in the data set with K562 [15] and in the data set on U-937 were 74 µM and 51.6 µM, respectively.
For `O=C1CC2(CCN(S(=O)(=O)c3ccccc3)CC2)Oc2ccccc21`, the IC50 with HT-29 worked out at 0.47 µM; in the data set with A2780 it was 0.31 µM; in the data set with MCF7 [16] it was 5.62 µM.
In the case of `Cc1ccc2[nH]c3c(c2c1)CC1(C3=O)C(c2cccc3ccccc23)C2CSCN2C12C(=O)Nc1ccccc12` (configuration not stated), the figures for the half-maximal inhibitory concentration (IC50) in the data set on HeLa [17] and with MCF7 [18] were 24.4 µM and 32.6 µM, respectively.
Regarding `CN1C[C@H](c2ccc(F)cc2)[C@]2(NC(=O)NC2=O)C12C(=O)Nc1ccccc12` (some centres not stated), the figures for the half-inhibitory concentration (IC50) at 72 h in [19] and in data set [20] were 14.3 µM and 20.8 µM, respectively. Moreover, the figures for the IC50 in the data set with MCF7 [21] and with A549 [22] were 18.3 µM and 7.5 µM, respectively.
Turning to `O=C1C=CC2(C=C1Br)OCC(=O)N2c1nc(-c2cccc(Cl)c2)nn1-c1ccccc1` (configuration not stated), the half-maximal inhibitory concentration (IC50) in the data set with MDA-MB-231 [1] worked out at 0.0008 µM; in the data set with A549 [2], 0.0252 µM; in the data set on MCF7 [3] it was 0.00411 µM; with HeLa [4] it was 0.0453 µM.
Turning to `CN1C/C(=C\c2ccc(F)cc2)C(=O)[C@@]2(C1)[C@H](c1ccc(F)cc1)CN(C)[C@]21C(=O)Nc2ccc(Cl)cc21`, the IC50 in the data set with MCF7 [8] turned out to be 2.98 µM; in the data set on HCT-116 [9], 2.74 µM; with T47D, 3.1 µM; in the data set on HeLa [10], 2.75 µM; in the data set with HepG2, 3.08 µM.
Turning to `CON1c2ccccc2[C@@]2(CN=C(Nc3cc(C(F)(F)F)cc(C(F)(F)F)c3)S2)[C@H]1Nc1cc(C(F)(F)F)cc(C(F)(F)F)c1`, the IC50 in the data set on HeLa [23] worked out at 2.5 µM; with A549 [24] it was 2.5 µM; in the data set with Caco-2, 19.7 µM; in the data set on MCF7 [25], 2 µM; in the data set with CCRF-CEM it was 1 µM; in the data set with Jurkat, 2 µM. Also, the IC50 amounted to 3.5 µM in the data set with MDA-MB-231 [26] and 43.9 µM in the data set on HCT-116 [27].
`CCN(CC)C[C@@]1([C@H]2c3ccccc3[C@@H](O)[C@]23C(=O)N(Cc2ccccc2)c2ccccc23)C(=O)N(Cc2ccccc2)c2ccccc21`: the half-inhibitory concentration (IC50) turned out to be 18.1 µM in the data set with A549 [28], 17.7 µM with PC-3 and 7.4 µM with K562 [29].
